The source of these data is patent publication US20240270741A1 (Cogent Biosciences, Inc., priority 2023, published 2024).

Sequence of FGFR2 (P21802 399-821 limits assumed): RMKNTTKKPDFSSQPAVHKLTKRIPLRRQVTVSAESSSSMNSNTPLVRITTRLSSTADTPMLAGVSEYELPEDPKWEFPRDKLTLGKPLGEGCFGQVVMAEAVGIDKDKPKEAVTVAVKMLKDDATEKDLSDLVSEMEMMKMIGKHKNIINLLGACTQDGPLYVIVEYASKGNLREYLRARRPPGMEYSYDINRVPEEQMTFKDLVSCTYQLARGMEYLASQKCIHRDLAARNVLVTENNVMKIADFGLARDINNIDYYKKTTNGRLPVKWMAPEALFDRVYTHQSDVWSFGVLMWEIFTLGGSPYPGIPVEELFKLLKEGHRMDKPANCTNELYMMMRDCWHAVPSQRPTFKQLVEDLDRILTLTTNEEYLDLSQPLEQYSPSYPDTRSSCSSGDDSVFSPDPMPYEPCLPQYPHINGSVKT

The assay has as its target FGFR2 (Homo sapiens, UniProt P21802). Kind of assay: FGFR wild type enzyme assay (HTRF KinEASE-TK), FGFR2. As to conditions: Enz FGFR2 (nM), FGFR2 wild type enzyme. For orientation: Time-resolved FRET reads energy transfer from a long-lived donor to a nearby acceptor.
Experimental: Activity against FGFR wild type and mutant enzymes were determined in biochemical assays using purified intracellular domains of the respective isoforms using HTRF KinEASE-TK assay technology from CisBio, now PerkinElmer. (Catalogue number 62TK0PEC). Briefly test compounds were tested in 11 point 1:3 serial dilutions, typical final concentration ranges from 10,000 nM to 0.17 nM. Test compounds were dissolved in DMSO and added to assay plates using acoustic transfer. Enzyme was pre-incubated with test compound for 30 minutes and the assay was initiated by addition of ATP and TK-peptide substrate. After 60 minutes at room temperature the reaction was quenched with detection reagent and incubated for an additional 60 minutes at room temperature. The plates were read using a multimode reader and the emission ratio of 665 nm to 615 nm was determined. This ratio was converted to percent of control (POC). [1-(high control-sample signal)/(high control-low control)]*100. Wells without compound were used to determine high control values and wells without enzyme were used to determine low control values. The POC values were fit using a four-parameter logistic model and the value where the fit curve was equal to 50 POC was reported as the IC50 using the Signals Vitro Vivo software package (PerkinElmer). Final assay conditions were: 50 mM HEPES pH7.5, 10 mM MgCl2, 1 mM EDTA, 0.01% Brij-35, 2 mM MnCl2, 1 mM DTT, and 0.5 uM TK-peptide.
In general, IC50 refers to the concentration needed to halve the response being measured. High values mean a need for much substance, low ones inhibition by little substance. In turn, `CC(=O)N[C@H]1CC[C@H](n2ncc(-c3cc(Sc4ccc(F)cc4C#N)c4c(C#N)cnn4c3)c2C)CC1` [Example 274, N-((1r,4r)-4-(4-(3-cyano-4-((2-cyano-4-fluorophenyl)thio)pyrazolo [1,5-a]pyridin-6-yl)-5-methyl-1H-pyrazol-1-yl)cyclohexyl)acetamide] yielded a 50% inhibitory concentration (IC50) of 1 nM. That is a single-digit nanomolar value.
With `Cc1c(-c2cc(Sc3ccc(F)cc3C#N)c3c(C#N)cnn3c2)cnn1[C@H]1CC[C@H](O)CC1` [Example 275, 4-(2-cyano-4-fluoro-phenyl)sulfanyl-6-[1-(4-hydroxycyclohexyl)-5-methyl-pyrazol-4-yl]pyrazolo[1,5-a]pyridine-3-carbonitrile] the figure was 1 nM; with `Cc1c(-c2cc(Sc3ncccc3F)c3c(C#N)cnn3c2)cnn1[C@H]1CCNC[C@@H]1O` [Example 276, 4-[(3-fluoro-2-pyridyl)sulfanyl]-6-[1-[(3S,4S)-3-hydroxy-4-piperidyl]-5-methylpyrazol-4-yl]pyrazolo[1,5-a]pyridine-3-carbonitrile], 3 nM; with `Cc1c(-c2cc(Sc3ncccc3F)c3c(C#N)cnn3c2)cnn1[C@@H]1CCNC[C@H]1O` [Example 277, 4-((3-fluoropyridin-2-yl)thio)-6-(1-((3R,4R)-3-hydroxypiperidin-4-yl)-5-methyl-1H-pyrazol-4-yl)pyrazolo[1,5-a]pyridine-3-carbonitrile], 15 nM.
With `CC(=O)N1CCO[C@@H](Cn2ncc(-c3cc(Sc4ccccc4C#N)c4c(C#N)cnn4c3)c2C)C1` [Example 278, (R)-6-(1-((4-acetylmorpholin-2-yl)methyl)-5-methyl-1H-pyrazol-4-yl)-4-((2-cyanophenyl)thio)pyrazolo [1,5-a]pyridine-3-carbonitrile] the figure was 4 nM; with `CC(=O)N1CCO[C@H](Cn2ncc(-c3cc(Sc4ccccc4C#N)c4c(C#N)cnn4c3)c2C)C1` [Example 279, (S)-6-(1-((4-acetylmorpholin-2-yl)methyl)-5-methyl-1H-pyrazol-4-yl)-4-((2-cyanophenyl)thio)pyrazolo [1,5-a]pyridine-3-carbonitrile], 3 nM; with `CC(=O)N1CCO[C@@H](Cn2ncc(-c3cc(Sc4ncccc4F)c4c(C#N)cnn4c3)c2C)C1` [Example 280, (R)-6-(1-((4-acetylmorpholin-2-yl)methyl)-5-methyl-1H-pyrazol-4-yl)-4-((3-fluoropyridin-2-yl)thio)pyrazolo[1,5-a]pyridine-3-carbonitrile], 12 nM.
With `Cc1c(-c2cc(Sc3ncccc3F)c3c(C#N)cnn3c2)cnn1[C@H]1CC[C@@H](CO)CC1` [Example 281, 4-((3-fluoropyridin-2-yl)thio)-6-(1-((1s,4s)-4-(hydroxymethyl)cyclohex-yl)-5-methyl-1H-pyrazol-4-yl)pyrazolo[1,5-a]pyridine-3-carbonitril] the figure was 2 nM; with `Cc1c(-c2cc(Sc3ncccc3F)c3c(C#N)cnn3c2)cnn1[C@H]1CC[C@@](C)(N)CC1` [Example 282, 6-(1-((1s,4s)-4-amino-4-methylcyclohexyl)-5-methyl-1H-pyrazol-4-yl)-4-((3-fluoropyridin-2-yl)thio)pyrazolo[1,5-a]pyridine-3-carbonitrile], 1 nM.
The molecule `Cc1c(-c2cc(Sc3ccccc3C#N)c3c(C#N)cnn3c2)cnn1[C@H]1CC[C@H](N(C)CCO)CC1` [Example 284, 4-((2-cyanophenyl)thio)-6-(1-((1r,4SR)-4-((2-hydroxyethyl)(methyl)ami-no)cyclohexyl)-5-methyl-1H-pyrazol-4-yl)pyrazolo[1,5-a]pyridine-3-carbonitrile] registered an IC50 of 0.4 nM.
With `Cc1c(-c2cc(Sc3ccccc3C#N)c3c(C#N)cnn3c2)cnn1[C@H]1CC[C@@H](NS(C)(=O)=O)CC1` [Example 285, N-((1s,4s)-4-(4-(3-cyano-4-((2-cyanophenyl)thio)pyrazolo [1,5-a]pyridin-6-yl)-5-methyl-1H-pyrazol-1-y)cyclohexyl)methane-sulfonamide] the figure was 1 nM; with `Cc1c(-c2cc(Sc3ccccc3C#N)c3c(C#N)cnn3c2)cnn1C1CCN(Cc2ncccn2)CC1` [Example 286, 4-((2-cyanophenyl)thio)-6-(5-methyl-1-(1-(pyrimidin-2-ylmethyl)piperidin-4-yl)-1H-pyrazol-4-yl)pyrazolo[1,5-a]pyridine-3-carbonitrile], 1 nM; with `Cc1c(-c2cc(Sc3ccccc3C#N)c3c(C#N)cnn3c2)cnn1[C@H]1CC[C@@H](NCc2ccccn2)CC1` [Example 287, 4-((2-cyanophenyl)thio)-6-(5-methyl-1-((1s,4s)-4-((pyridin-2-ylmethyl)amino)cyclohex-yl)-1H-pyrazol-4-yl)pyrazolo[1,5-a]pyridine-3-carbonitrile], 0.4 nM.
Molecule `Cc1c(-c2cc(Sc3ccc(F)cc3C#N)c3c(C#N)cnn3c2)cnn1[C@H]1CC[C@@H](O)CC1` [Example 288, 4-((2-cyano-4-fluorophenyl)thio)-6-(1-((1s,4s)-4-hydroxycyclohexyl)-5-methyl-1H-pyrazol-4-yl)pyrazolo[1,5-a]pyridine-3-carbonitrile] came in with an IC50 of 1 nM. This IC50 lies about 2.5-fold higher than the previous one.
With `Cc1c(-c2cc(Sc3ccc(F)cc3C#N)c3c(C#N)cnn3c2)cnn1[C@@H]1C[C@H]2CC[C@@H](C1)N2C` [Example 289, 4-((2-cyano-4-fluorophenyl)thio)-6-(5-methyl-1-((1R,3s,5S)-8-methyl-8-azabicyclo[3.2.1]octan-3-yl)-1H-pyrazol-4-yl)pyrazolo[1,5-a]pyridine-3-carbonitrile], the IC50 is 0.5 nM.
Regarding `Cc1c(-c2cc(Sc3ccc(F)cn3)c3c(C#N)cnn3c2)cnn1[C@H]1CC[C@@H](O)CC1` [Example 290, 4-((5-fluoropyridin-2-yl)thio)-6-(1-((1s,4s)-4-hydroxycyclohexyl)-5-methyl-1H-pyrazol-4-yl)pyrazolo[1,5-a]pyridine-3-carbonitrile], the IC50 was 5 nM.
With `Cc1c(-c2cc(Sc3ccc(F)cn3)c3c(C#N)cnn3c2)cnn1[C@H]1CC[C@@](C)(N)CC1` [Example 291, 6-(1-((1s,4s)-4-amino-4-methylcyclohexyl)-5-methyl-1H-pyrazol-4-yl)-4-((5-fluoropyridin-2-yl)thio)pyrazolo[1,5-a]pyridine-3-carbonitrile] the figure was 3 nM.
Molecule `CN[C@]1(C)CC[C@H](n2ncc(-c3cc(Sc4ccc(F)cn4)c4c(C#N)cnn4c3)c2C)CC1` [Example 292, 4-((5-fluoropyridin-2-yl)thio)-6-(5-methyl-1-((1s,4s)-4-methyl-4-(methylamino)cyclohexyl)-1H-pyrazol-4-yl)pyrazolo[1,5-a]pyridine-3-carbonitrile] returned an IC50 of 3 nM. This counts as single-digit nanomolar.
In the case of `N#Cc1cnn2cc(-c3cnn([C@H]4CC[C@@H](O)CC4)c3)cc(Sc3ncccc3F)c12` [Example 293, 4-((3-fluoropyridin-2-yl)thio)-6-(1-((1s,4s)-4-hydroxycyclohexyl)-1H-pyrazol-4-yl)pyrazolo[1,5-a]pyridine-3-carbonitrile] it was 1 nM; in that of `N#Cc1ccccc1Sc1cc(-c2cnn([C@H]3CC[C@@H](O)CC3)c2)cn2ncc(C#N)c12` [Example 294, 4-((2-cyanophenyl)thio)-6-(1-((1s,4s)-4-hydroxycyclohexyl)-1H-pyrazol-4-yl)pyrazolo[1,5-a]pyridine-3-carbonitrile], 0.5 nM; in that of `CN[C@]1(C)CC[C@H](n2ncc(-c3cc(Sc4ncccc4F)c4c(C#N)cnn4c3)c2C)CC1` [Example 295, 4-((3-fluoropyridin-2-yl)thio)-6-(5-methyl-1-((1s,4s)-4-methyl-4-(methylamino)cylcohexyl)-1H-pyrazol-4-yl)pyrazolo[1,5-a]pyridine-3-carbonitrile], 1 nM.
In the case of `Cc1c(-c2cc(Sc3ncccc3F)c3c(C#N)cnn3c2)cnn1[C@@H]1CC[C@H](O)[C@H](O)C1` [Example 296, 6-(1-((1R,3R,4S)-3,4-dihydroxycyclohexyl)-5-methyl-1H-pyrazol-4-yl)-4-((3-fluoropyridin-2-yl)thio)pyrazolo[1,5-a]pyridine-3-carbonitrile] it was 2 nM.
In the case of `Cc1c(-c2cc(Sc3ccccc3C#N)c3c(C#N)cnn3c2)cnn1[C@H]1CC[C@@](C)(N)CC1` [Example 297, 6-[1-(4-amino-4-methyl-cyclohexyl)-5-methyl-pyrazol-4-yl]-4-(2-cyanophenyl) sulfanylpyrazolo[1,5-a]pyridine-3-carbonitrile] it was 0.3 nM; in that of `CN(C)[C@H]1CC[C@@H](n2cc(-c3cc(Sc4ccccc4C#N)c4c(C#N)cnn4c3)cn2)CC1` [Example 298, 4-((2-cyanophenyl)thio)-6-(1-((1s,4s)-4-(dimethylamino)cyclohex-yl)-1H-pyrazol-4-yl)pyrazolo[1,5-a]pyridine-3-carbonitrile], 0.5 nM.
With `CC(=O)N[C@H]1CC[C@@H](n2ncc(-c3cc(Sc4ccc(F)cc4C#N)c4c(C#N)cnn4c3)c2C)CC1` [Example 299, N-((1s,4S)-4-(4-(3-cyano-4-((2-cyano-4-fluorophenyl)thio)pyrazolo [1,5-a]pyridin-6-yl)-5-methyl-1H-pyrazol-1-yl)cyclohexyl)acetamide], inhibition was half-maximal at 1 nM (IC50).
In the case of `Cc1c(-c2cc(Sc3ccc(F)cc3C#N)c3c(C#N)cnn3c2)cnn1[C@H]1C[C@H]2CC[C@@H](C1)N2C` [Example 300, 4-((2-cyano-4-fluorophenyl)thio)-6-(5-methyl-1-((1R,3r,5S)-8-methyl-8-azabicyclo[3.2.1]octan-3-yl)-1H-pyrazol-4-yl)pyazolo[1,5-a]pyridine-3-carbonitrile] it was 1 nM; in that of `Cc1c(-c2cc(Sc3ccc(F)cc3C#N)c3c(C#N)cnn3c2)cnn1[C@H]1CC[C@H](NC(=O)CO)CC1` [Example 301, N-((1r,4r)-4-(4-(3-cyano-4-((2-cyano-4-fluorophenyl)thio)pyrazolo [1,5-a]pyridin-6-yl)-5-methyl-1H-pyrazol-1-yl)cyclohexyl)-2-hydroxyacetamide], 1 nM.
In the case of `Cc1c(-c2cc(Sc3ccccn3)c3c(C#N)cnn3c2)cnn1[C@H]1CC[C@@H](O)CC1` [Example 302] it was 4 nM.
